The source of these data is patent US20260199339A1, “COMBINATION THERAPY FOR TREATING ABNORMAL CELL GROWTH” (Verastem, Inc., priority 2020, published 2026).

“Also recorded” adds a separate entry of the source.

Test [1] concerns KRAS/BRAF mutant human cancer cell lines. The experiment in a line: RNA extraction and qRT-PCR of MHC-I antigen presentation genes. As to conditions: FIG. 1. Type of test: cell-based. Here is the method: RNA Extraction and qRT-PCR
Cells were seeded into 6-cm dishes and after an incubate overnight (17~22 hrs) cells were treated with VS-6766 for 48 hours at a concentration that gave an 80% cell viability (1 μM for A549, TOV21G and WM115, and 300 nM for SKMEL5 and IGR-1). RNA was extracted using RNeasy® Plus Mini kit (Qiagen) and converted to cDNA using the cDNA by High-Capacity cDNA Reverse Transcription Kit (Applied Biosystems). TaqMan qPCR was run using HLA-A, B2M, TAP1 and TAP-2 probes from Applied Biosystems. VIC-GAPDH probe as the house keeping gene. Each PCR reaction will be run in triplicate wells. Expression levels were computed as the difference (ΔCT) between the target gene CT and GAPDH CT.
For orientation: Real-time PCR tracks product formation cycle by cycle.

Test [2] concerns CT26 KRAS (G12D)-mutant colorectal cancer mouse models. The experiment in a line: Syngeneic CT26 tumor mouse study, VS-6766 and/or anti-PD-1. As to conditions: VS-6766 0.5 mg/kg PO QD x 28 days; anti-PD-1 60 μg/mouse (3 mg/kg) IP BIW x 4 doses; Balb/c mice; FIG. 2A, 2B. The test is classed as in vivo. Here is the method:
CT26 tumor cells were obtained from ATCC and Balb/c mice were obtained from Shanghai Lingchang Biotechnology. Tumor challenge was initiated by subcutaneous inoculation of 3×10^5 CT26 tumor cell suspensions into the right flank of recipient mice. Tumor sizes (mm3) were measured and calculated as described above. Once tumors reached an average volume of 50-80 mm3, mice were sorted into 4 groups (n=10): vehicle (5% DMSO, 10% HPCD in sterile water, oral dosing (PO), once per day (QD), 28 days)+isotype control ([…] intraperitoneally (IP) biweekly, 4 doses; rat IgG2a clone 2A3, BioXcell), VS-6766 (0.5 mg/kg PO QD, 28 days)+isotype control, anti-PD-1 (60 μg/mouse IP biweekly, 4 doses; clone RMP1-14, BioXCell), and VS-6766+anti-PD-1. Tumors and body weights were measured 3 times per week for the duration of the study. At the time of routine monitoring, the animals were checked for any effects of tumor growth and treatments on normal behavior such as mobility, food and water consumption (by looking only), and body weight gain/loss, eye/hair matting and any other abnormal effect. For Kaplan-Meier analysis, an event was defined by death or tumor growth beyond 2,000 mm^3.

The next test has as its system TOV21G. The experiment in a line: Cell viability after VS-6766 treatment, TOV21G. Type of test: cell-based, human. As to conditions: 48 hours.
The test system of a further test is A549. The experiment in a line: Cell viability after VS-6766 treatment, A549. The test is classed as cell-based, human. As to conditions: A549, 48 hours.
A further test has as its system IGR-1. The test can be described thus: Cell viability after VS-6766 treatment, IGR-1. The test is classed as cell-based, human. As to conditions: IGR-1, 48 hours.
In another test the test system is SKMEL5. The test can be described thus: Cell viability after VS-6766 treatment, SKMEL5. The test is classed as cell-based, human. As to conditions: SKMEL5, 48 hours.
The next test concerns WM115. The test can be described thus: Cell viability after VS-6766 treatment, WM115. Type of test: cell-based, human. As to conditions: WM115, 48 hours.

Turning to `CNS(=O)(=O)Nc1nccc(Cc2c(C)c3ccc(Oc4ncccn4)cc3oc2=O)c1F` [VS-6766], the HLA-A expression entry in test [1] (48 h, qRT-PCR) is given as “increased”. The TAP1 expression result in test [1] (48 h, qRT-PCR) is on record as “increased”. Further, the TAP2 expression result in test [1] (48 h, qRT-PCR) is “increased”. For the same compound, the β2M expression entry in test [1] (48 h, qRT-PCR) is on record as “increased”. In addition, the “tumor antigen presentation (markers associated with antigen presentation, MHC-I expression)” value in test [1] (multiple KRAS/BRAF mutant human cancer cell lines) is listed as “increase tumor antigen presentation; also recorded: upregulates”. The “tumor growth / antitumor efficacy (tumor volume)” value in test [2] is “delay tumor growth”. Moreover, the “concentration that gave an 80% cell viability” value in the test on TOV21G was 1 µM; in the test on A549 it was 1 µM; in the test with IGR-1, 300 nM; with SKMEL5, 300 nM; in the test on WM115, 1 µM.
